In patent US11477981B2, “Ice nucleation formulations for cryopreservation and stabilization of biologics” (The General Hospital Corporation, priority 2016, dated 2022):

Legend:
[1] = Ice nucleation kinetics of picoliter-sized drops of D2O and H2O mixtures (droplet technology); assay type: physicochemical
Text: FIG. 7. Probability distribution of ice nucleation temperature using nanodroplet technology, wherein condition 1 is pure heavy water containing 0.1 g/L SNOMAX, condition 2 is pure water containing 0.1 g/L SNOMAX, condition 3 is pure heavy water, and condition 4 is pure water.
This disclosure has also systematically investigated the ice nucleation kinetics of picoliter-sized drops of heavy water (e.g., D2O or T2O) and light water (H2O) mixtures with freeze-dried P. syringae. […] The disclosure further investigated the effects of commonly used cryoprotectants such as ethylene glycol, propylene glycol and trehalose on the freezing characteristics of D2O and H2O mixtures. […] Furthermore, several cryoprotectants are found to depress the freezing phenomenon. Both the homogeneous and heterogeneous freezing temperatures of these aqueous solutions depend on the water activity and are independent of the nature of solute.
A self-nucleating and preservation formulation comprising heavy water and ice nucleating agents was developed with broad applications in the field of cryopreservation. […]

[2] = system: animals and animal cells; conditions: at normal body temperatures; cited from earlier work
[3] = background statement; cited from earlier work

In the case of `[2H]O[2H]` [D2O], the “shift of the ice nucleation kinetics profile per 25% (v/v) increase of D2O concentration” value ([1]; D2O+H2O mixtures containing 1 mg/ml SNOMAX) is listed as “shifts by about one degree”, the median nucleation temperature ([1]; pure D2O, no ice nucleating agent, droplet technology) is listed as −32.1 °C and the “concentration that can be toxic” value [2] is listed as “more than 20%”.

B1: ice nucleation active (INA) protein: ice nucleation active protein InaZ of Pseudomonas syringae (UniProt P06620-1; SEQ ID NO: 1) (protein, listed as Pseudomonas syringae)
chain: MNLDKALVLRTCANNMADHCGLIWPASGTVESRYWQSTRRHENGLVGLLWGAGTSAFLSVHADARWIVCEVAVADIISLEEPGMVKFPRAEVVHVGDRISASHFISARQADPASTSTSTLTPMPTAIPTPMPAVASVTLPVAEQARHEVFDVASVSAAAAPVNTLPVTTPQNVQTATYGSTLSGDNHSRLIAGYGSNETAGNHSDLIAGYGSTGTAGSDSWLVAGYGSTQTAGGDSALTAGYGSTQTAREGSNLTAGYGSTGTAGSDSSLIAGYGSTQTSGGDSSLTAGYGSTQTAQEGSNLTAGYGSTGTAGSDSSLIAGYGSTQTSGGDSSLTAGYGSTQTAQEGSNLTAGYGSTGTAGVDSSLIAGYGSTQTSGSDSALTAGYGSTQTAQEGSNLTAGYGSTGTAGSDSSLIAGYGSTQTSGSDSSLTAGYGSTQTAQEGSILTAGYGSTGTAGVDSSLIAGYGSTQTSGSDSALTAGYGSTQTAQEGSNLTAGYGSTGTAGADSSLIAGYGSTQTSGSESSLTAGYGSTQTAREGSTLTAGYGSTGTAGADSSLIAGYGSTQTSGSESSLTAGYGSTQTAQQGSVLTSGYGSTQTAGAASNLTTGYGSTGTAGHESFIIAGYGSTQTAGHKSILTAGYGSTQTARDGSDLIAGYGSTGTAGSGSSLIAGYGSTQTASYRSMLTAGYGSTQTAREHSDLVTGYGSTSTAGSNSSLIAGYGSTQTAGFKSILTAGYGSTQTAQERTSLVAGYGSTSTAGYSSSLIAGYGSTQTAGYESTLTAGYGSTQTAQENSSLTTGYGSTSTAGYSSSLIAGYGSTQTAGYESTLTAGYGSTQTAQERSDLVTGYGSTSTAGYASSLIAGYGSTQTAGYESTLTAGYGSTQTAQENSSLTTGYGSTSTAGFASSLISGYGSTQTAGYKSTLTAGYGSTQTAEYGSSLTAGYGSTATAGQDSSLIAGYGSSLTSGIRSFLTAGYGSTLIAGLRSVLIAGYGSSLTSGVRSTLTAGYGSNQIASYGSSLIAGHESIQVAGNKSMLIAGKGSSQTAGFRSTLIAGAGSVQLAGDRSRLIAGADSNQTAGDRSKLLAGNNSYLTAGDRSKLTGGHDCTLMAGDQSRLTAGKNSVLTAGARSKLIGSEGSTLSAGEDSILIFRLWDGKRYRQLVARTGENGVEADIPYYVNEDDDIVDKPDEDDDWIEVK
In the case of B1, the “temperature at which water freezes” value [3] is given as −4 to −2 °C.
